Assay results from article PMC6429214, “Design, Synthesis and Biological Evaluation of Isoxazole-Based CK1 Inhibitors Modified with Chiral Pyrrolidine Scaffolds” (Molecules, 2019).

Experiments:
Experiment in all cases: 33PanQinase panel
Assay type in all cases: biochemical
[1] = biological target: T1, CDK3/CycE1 (Homo sapiens, UniProt Q00526); conditions: CDK3/CycE1, 1 µM; read-out: Residual Activity (%)
T1 construct: purchased ProQinase
Summary of the method: (§1)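 Each reaction mix held 1% DMSO and 1 µM test compound; kinase activity was read radiometrically (33P) and normalised to DMSO control as percent residual activity.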

[2] = biological target: T2, TAOK2 (Homo sapiens, UniProt Q9UL54); conditions: TAOK2, 1 µM; read-out: Residual Activity (%)
T2 construct: purchased ProQinase
Summary of the method: as §1

[3] = biological target: T3, FAK aa2-1052 (Homo sapiens, UniProt Q05397); conditions: FAK aa2-1052, 1 µM; read-out: Residual Activity (%)
T3 construct: purchased ProQinase
Summary of the method: as §1

[4] = biological target: T4, CHK2 (Homo sapiens, UniProt O96017); conditions: CHK2, 1 µM; read-out: Residual Activity (%)
T4 construct: purchased ProQinase
Summary of the method: as §1

[5] = biological target: T5, GRK5 (Homo sapiens, UniProt P34947); conditions: GRK5, 1 µM; read-out: Residual Activity (%)
T5 construct: purchased ProQinase
Summary of the method: as §1

[6] = biological target: T6, WNK2 (Homo sapiens, UniProt Q9Y3S1); conditions: WNK2, 1 µM; read-out: Residual Activity (%)
T6 construct: purchased ProQinase
Summary of the method: as §1

[7] = biological target: T7, WNK1 (Homo sapiens, UniProt Q9H4A3); conditions: WNK1, 1 µM; read-out: Residual Activity (%)
T7 construct: purchased ProQinase
Summary of the method: as §1

[8] = biological target: T8, RIPK5 (Homo sapiens, UniProt Q6XUX3); conditions: RIPK5, 1 µM; read-out: Residual Activity (%)
T8 construct: purchased ProQinase
Summary of the method: as §1

[9] = biological target: T9, PIM2 (Homo sapiens, UniProt Q9P1W9); conditions: PIM2, 1 µM; read-out: Residual Activity (%)
T9 construct: purchased ProQinase
Summary of the method: as §1

[10] = biological target: T10, MAP3K1 (Homo sapiens, UniProt Q13233); conditions: MAP3K1, 1 µM; read-out: Residual Activity (%)
T10 construct: purchased ProQinase
Summary of the method: as §1

[11] = biological target: T11, DNA-PK (Homo sapiens, UniProt P78527); conditions: read-out: Residual Activity (%)
T11 construct: purchased ProQinase
Summary of the method: as §1

[12] = biological target: T12, EIF2AK2 (Homo sapiens, UniProt P19525); conditions: EIF2AK2, 1 µM; read-out: Residual Activity (%)
T12 construct: purchased ProQinase
Summary of the method: as §1

[13] = biological target: T13, CDK7/CycH/MAT1 (Homo sapiens, UniProt P50613); conditions: CDK7/CycH/MAT1, 1 µM; read-out: Residual Activity (%)
T13 construct: purchased ProQinase
Summary of the method: as §1

[14] = biological target: T14, CDK5/p25NCK (Homo sapiens, UniProt Q00535); conditions: read-out: Residual Activity (%)
T14 construct: purchased ProQinase
Summary of the method: as §1

[15] = biological target: T15, CAMK2A (Homo sapiens, UniProt Q9UQM7); conditions: read-out: Residual Activity (%)
T15 construct: purchased ProQinase
Summary of the method: as §1

[16] = biological target: T16, EPHA6 (Homo sapiens, UniProt Q9UF33); conditions: EPHA6, 1 µM; read-out: Residual Activity (%)
T16 construct: purchased ProQinase
Summary of the method: as §1

[17] = biological target: T17, MAP3K9 (Homo sapiens, UniProt P80192); conditions: MAP3K9, 1 µM; read-out: Residual Activity (%)
T17 construct: purchased ProQinase
Summary of the method: as §1

[18] = biological target: T18, TSF1 (Homo sapiens, UniProt O75716); conditions: TSF1, 1 µM; read-out: Residual Activity (%)
T18 construct: purchased ProQinase
Summary of the method: as §1

[19] = biological target: T19, INSR-R (Homo sapiens, UniProt P14616); conditions: read-out: Residual Activity (%)
T19 construct: purchased ProQinase
Summary of the method: as §1

[20] = biological target: T20, RON (Homo sapiens, UniProt Q04912); conditions: read-out: Residual Activity (%)
T20 construct: purchased ProQinase
Summary of the method: as §1

[21] = biological target: T21, STK33 (Homo sapiens, UniProt Q9BYT3); conditions: STK33, 1 µM; read-out: Residual Activity (%)
T21 construct: purchased ProQinase
Summary of the method: as §1

[22] = biological target: T22, CK1-alpha1 (Homo sapiens, UniProt P48729); conditions: CK1-alpha1, 1 µM; read-out: Residual Activity (%)
T22 construct: purchased ProQinase
Summary of the method: as §1

T5 sequence (P34947 whole entry): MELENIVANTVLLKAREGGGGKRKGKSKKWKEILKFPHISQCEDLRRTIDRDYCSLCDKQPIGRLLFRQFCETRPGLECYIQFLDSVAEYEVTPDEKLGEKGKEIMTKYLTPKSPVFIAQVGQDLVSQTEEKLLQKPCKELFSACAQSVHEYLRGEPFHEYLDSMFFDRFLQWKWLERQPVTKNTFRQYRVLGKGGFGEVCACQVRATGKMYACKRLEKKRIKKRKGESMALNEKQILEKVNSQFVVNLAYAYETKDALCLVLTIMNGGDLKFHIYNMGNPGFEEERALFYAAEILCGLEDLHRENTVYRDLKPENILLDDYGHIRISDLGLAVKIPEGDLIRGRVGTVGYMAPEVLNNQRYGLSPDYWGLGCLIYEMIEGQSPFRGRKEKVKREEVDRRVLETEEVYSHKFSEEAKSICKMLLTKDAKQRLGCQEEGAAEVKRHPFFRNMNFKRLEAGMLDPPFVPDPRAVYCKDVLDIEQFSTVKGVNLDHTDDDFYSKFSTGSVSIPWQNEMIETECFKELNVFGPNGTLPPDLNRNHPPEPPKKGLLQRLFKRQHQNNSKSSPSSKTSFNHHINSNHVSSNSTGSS
T4 sequence (O96017 whole entry): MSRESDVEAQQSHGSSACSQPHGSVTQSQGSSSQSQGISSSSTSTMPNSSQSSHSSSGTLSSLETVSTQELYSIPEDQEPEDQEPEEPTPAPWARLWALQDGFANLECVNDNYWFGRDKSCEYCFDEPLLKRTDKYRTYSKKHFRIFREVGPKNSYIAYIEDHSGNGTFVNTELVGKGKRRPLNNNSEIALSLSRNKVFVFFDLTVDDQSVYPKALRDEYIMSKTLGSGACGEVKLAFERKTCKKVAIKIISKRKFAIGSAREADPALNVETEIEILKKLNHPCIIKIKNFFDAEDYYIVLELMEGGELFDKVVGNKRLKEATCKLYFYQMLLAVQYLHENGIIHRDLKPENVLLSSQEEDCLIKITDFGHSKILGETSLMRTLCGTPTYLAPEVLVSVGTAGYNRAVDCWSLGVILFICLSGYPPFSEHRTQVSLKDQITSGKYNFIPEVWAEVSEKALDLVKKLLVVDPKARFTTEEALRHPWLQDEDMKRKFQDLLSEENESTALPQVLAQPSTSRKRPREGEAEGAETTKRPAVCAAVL
T22 sequence (P48729 whole entry): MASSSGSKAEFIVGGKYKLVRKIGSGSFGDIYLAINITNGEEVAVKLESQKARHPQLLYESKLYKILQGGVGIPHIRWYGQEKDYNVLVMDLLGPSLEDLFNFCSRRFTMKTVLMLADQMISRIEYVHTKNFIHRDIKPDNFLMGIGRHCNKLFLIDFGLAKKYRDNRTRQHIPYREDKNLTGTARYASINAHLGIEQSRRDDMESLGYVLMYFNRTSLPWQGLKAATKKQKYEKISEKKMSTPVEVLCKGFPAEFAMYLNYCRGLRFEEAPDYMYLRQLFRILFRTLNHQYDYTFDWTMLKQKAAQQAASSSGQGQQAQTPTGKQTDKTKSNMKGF
T3 sequence (Q05397 whole entry, the tested form may be a part): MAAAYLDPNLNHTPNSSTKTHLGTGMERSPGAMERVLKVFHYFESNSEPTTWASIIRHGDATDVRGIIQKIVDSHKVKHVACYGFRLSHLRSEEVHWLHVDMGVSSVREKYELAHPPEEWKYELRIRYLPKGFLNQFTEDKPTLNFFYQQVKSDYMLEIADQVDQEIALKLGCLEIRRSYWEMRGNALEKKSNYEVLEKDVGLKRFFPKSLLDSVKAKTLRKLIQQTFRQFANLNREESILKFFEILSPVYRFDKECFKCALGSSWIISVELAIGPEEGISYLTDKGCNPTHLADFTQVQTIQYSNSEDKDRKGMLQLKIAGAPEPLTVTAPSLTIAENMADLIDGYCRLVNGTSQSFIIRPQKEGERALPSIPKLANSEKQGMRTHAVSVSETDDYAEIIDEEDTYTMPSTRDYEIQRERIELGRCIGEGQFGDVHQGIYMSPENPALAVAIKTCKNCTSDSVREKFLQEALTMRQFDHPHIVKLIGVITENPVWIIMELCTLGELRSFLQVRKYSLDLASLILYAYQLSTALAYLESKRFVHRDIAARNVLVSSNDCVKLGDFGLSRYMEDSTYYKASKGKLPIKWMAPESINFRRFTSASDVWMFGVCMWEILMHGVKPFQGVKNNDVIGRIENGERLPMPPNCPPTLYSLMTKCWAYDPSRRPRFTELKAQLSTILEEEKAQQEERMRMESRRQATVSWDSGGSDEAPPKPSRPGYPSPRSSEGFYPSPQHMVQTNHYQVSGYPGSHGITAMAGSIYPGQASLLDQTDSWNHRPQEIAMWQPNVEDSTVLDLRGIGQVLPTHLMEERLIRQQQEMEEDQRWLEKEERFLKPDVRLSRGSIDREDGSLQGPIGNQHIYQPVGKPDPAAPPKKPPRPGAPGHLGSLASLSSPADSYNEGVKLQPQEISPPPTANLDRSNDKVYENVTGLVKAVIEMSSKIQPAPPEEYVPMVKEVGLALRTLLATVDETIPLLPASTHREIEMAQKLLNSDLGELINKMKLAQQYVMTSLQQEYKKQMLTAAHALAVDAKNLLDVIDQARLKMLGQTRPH
T12 sequence (P19525 whole entry): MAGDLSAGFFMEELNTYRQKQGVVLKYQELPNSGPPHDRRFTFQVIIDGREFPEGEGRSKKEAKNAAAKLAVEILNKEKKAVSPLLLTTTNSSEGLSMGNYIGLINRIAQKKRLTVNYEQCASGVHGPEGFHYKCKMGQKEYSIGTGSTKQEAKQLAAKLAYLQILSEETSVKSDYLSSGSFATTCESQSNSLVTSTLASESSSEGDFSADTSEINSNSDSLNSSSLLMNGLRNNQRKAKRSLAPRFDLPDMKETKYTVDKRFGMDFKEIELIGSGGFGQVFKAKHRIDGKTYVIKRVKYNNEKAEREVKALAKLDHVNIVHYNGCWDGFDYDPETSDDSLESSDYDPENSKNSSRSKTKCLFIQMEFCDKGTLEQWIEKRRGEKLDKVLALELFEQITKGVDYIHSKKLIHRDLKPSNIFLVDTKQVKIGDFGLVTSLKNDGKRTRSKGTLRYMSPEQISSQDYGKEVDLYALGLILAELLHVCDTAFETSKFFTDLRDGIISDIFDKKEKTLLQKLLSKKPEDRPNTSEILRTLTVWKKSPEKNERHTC
T21 sequence (Q9BYT3 whole entry): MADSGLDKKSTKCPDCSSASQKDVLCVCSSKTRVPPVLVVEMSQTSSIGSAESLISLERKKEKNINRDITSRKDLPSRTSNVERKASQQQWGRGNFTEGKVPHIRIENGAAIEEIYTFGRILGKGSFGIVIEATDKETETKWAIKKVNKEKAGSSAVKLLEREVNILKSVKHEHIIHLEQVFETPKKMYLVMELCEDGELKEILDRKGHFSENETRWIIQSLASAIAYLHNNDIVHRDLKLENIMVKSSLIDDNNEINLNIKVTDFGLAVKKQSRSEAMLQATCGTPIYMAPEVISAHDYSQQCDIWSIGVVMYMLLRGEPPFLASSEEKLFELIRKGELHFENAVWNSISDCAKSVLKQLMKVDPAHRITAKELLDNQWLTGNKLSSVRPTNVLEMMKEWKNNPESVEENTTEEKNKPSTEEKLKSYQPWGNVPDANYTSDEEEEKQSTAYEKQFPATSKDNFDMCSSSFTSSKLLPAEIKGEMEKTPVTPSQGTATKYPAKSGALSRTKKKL
T9 sequence (Q9P1W9 whole entry): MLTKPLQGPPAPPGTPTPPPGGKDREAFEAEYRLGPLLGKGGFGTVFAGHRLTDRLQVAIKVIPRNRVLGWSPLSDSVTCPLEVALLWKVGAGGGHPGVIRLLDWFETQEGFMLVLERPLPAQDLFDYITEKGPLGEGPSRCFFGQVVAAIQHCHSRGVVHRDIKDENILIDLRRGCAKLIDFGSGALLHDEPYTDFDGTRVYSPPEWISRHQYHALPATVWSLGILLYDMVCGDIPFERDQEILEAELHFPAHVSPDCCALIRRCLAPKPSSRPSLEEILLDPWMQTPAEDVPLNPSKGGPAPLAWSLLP
T1 sequence (Q00526 whole entry): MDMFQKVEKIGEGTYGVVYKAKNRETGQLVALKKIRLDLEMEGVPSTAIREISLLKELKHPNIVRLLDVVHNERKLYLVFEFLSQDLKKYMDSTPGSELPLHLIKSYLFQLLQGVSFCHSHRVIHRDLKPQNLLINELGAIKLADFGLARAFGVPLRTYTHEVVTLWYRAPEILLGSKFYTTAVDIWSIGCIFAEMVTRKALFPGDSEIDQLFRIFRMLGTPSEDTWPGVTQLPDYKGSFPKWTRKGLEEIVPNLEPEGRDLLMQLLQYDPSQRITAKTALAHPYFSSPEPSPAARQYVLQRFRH
T1 sequence (P24864 whole entry partner): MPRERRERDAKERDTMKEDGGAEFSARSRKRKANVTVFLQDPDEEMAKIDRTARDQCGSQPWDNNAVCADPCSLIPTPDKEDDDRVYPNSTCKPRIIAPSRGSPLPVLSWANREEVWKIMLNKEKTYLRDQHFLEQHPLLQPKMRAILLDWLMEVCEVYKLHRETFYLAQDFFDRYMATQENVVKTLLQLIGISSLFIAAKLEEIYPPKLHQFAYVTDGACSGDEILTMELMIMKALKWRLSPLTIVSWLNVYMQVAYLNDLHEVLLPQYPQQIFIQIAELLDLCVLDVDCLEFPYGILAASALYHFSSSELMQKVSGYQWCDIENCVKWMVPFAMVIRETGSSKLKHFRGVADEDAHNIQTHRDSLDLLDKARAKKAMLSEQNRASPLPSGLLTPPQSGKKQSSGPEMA
T18 sequence (O75716 whole entry): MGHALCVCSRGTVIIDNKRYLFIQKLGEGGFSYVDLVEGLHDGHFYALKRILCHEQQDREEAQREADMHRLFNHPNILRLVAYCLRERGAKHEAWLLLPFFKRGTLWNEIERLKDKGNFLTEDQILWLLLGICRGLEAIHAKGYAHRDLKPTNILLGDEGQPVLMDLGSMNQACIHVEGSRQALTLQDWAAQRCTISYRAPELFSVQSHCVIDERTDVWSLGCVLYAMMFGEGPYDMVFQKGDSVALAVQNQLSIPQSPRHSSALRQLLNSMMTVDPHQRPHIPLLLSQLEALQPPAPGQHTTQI

COc1ccc(-c2cc(C(=O)Nc3cc(-c4c(-c5ccc(F)cc5)noc4C(C)C)ccn3)n(CC3NCC(O)C3O)c2)cc1 (stereo not shown) [29d]
remaining activity at 1 µM [1]: 103%
remaining activity at 1 µM [2]: 105%
remaining activity at 1 µM [3]: 120%
remaining activity at 1 µM [4]: 97%
remaining activity at 1 µM [5]: 97%
remaining activity at 1 µM [6]: 103%
remaining activity at 1 µM [7]: 90%
remaining activity at 1 µM [8]: 99%
remaining activity at 1 µM [9]: 84%
remaining activity at 1 µM [10]: 94%
remaining activity at 1 µM [11]: 95%
remaining activity at 1 µM [12]: 132%
remaining activity at 1 µM [13]: 98%
remaining activity at 1 µM [14]: 92%
remaining activity at 1 µM [15]: 87%
remaining activity at 1 µM [16]: 108%
remaining activity at 1 µM [17]: 116%
remaining activity at 1 µM [18]: 86%
remaining activity at 1 µM [19]: 89%
remaining activity at 1 µM [20]: 115%
remaining activity at 1 µM [21]: 84%
remaining activity at 1 µM [22]: 16%
